Measured values: ChEMBL document CHEMBL3045220, “Design, characterization, computational studies, and pharmacological evaluation of substituted-N-[(1E) substituted-phenylmethylidene]benzohydrazide analogs” (Med Chem Res, 2013)
In brackets after ≈: the same amount, converted by molar mass.

How the values were obtained:
[1] = system: Pseudomonas aeruginosa; test: Antibacterial activity against Pseudomonas aeruginosa by agar well diffusion method; type: functional; details: for MIC: Pseudomonas aeruginosa
[2] = Antioxidant activity assessed as H2O2 scavenging activity after 10 min by UV-Vis spectrophotometric analysis; type: functional
[3] = Anti-inflammatory activity assessed as inhibition of albumin denaturation incubated for 15 min at 27 degC followed by incubation at 60 degC for 10 min by UV-Vis spectrophotometric analysis
[4] = system: Staphylococcus aureus; test: Antibacterial activity against Staphylococcus aureus by agar well diffusion method; type: functional; details: for MIC: Staphylococcus aureus
[5] = system: Candida albicans; test: Antifungal activity against Candida albicans by agar well diffusion method; type: functional; details: for MIC: Candida albicans
[6] = system: Staphylococcus epidermidis; test: Antibacterial activity against Staphylococcus epidermidis by agar well diffusion method; type: functional; details: for MIC: Staphylococcus epidermidis
[7] = system: Escherichia coli; test: Antibacterial activity against Escherichia coli by agar well diffusion method; type: functional; details: for MIC: Escherichia coli
[8] = Antioxidant activity assessed as Mo(6) reduction activity after 60 min by UV-Vis spectrophotometric analysis; type: functional
[9] = system: Aspergillus niger; test: Antifungal activity against Aspergillus niger by agar well diffusion method; type: functional; details: for MIC: Aspergillus niger

SMILES	-logMIC [1]	MIC [1]	IC50 [2]	IC50 [3]	-logMIC [4]	MIC [4]	-logMIC [5]	MIC [5]	-logMIC [6]	MIC [6]	-logMIC [7]	MIC [7]	IC50 [8]	-logMIC [9]	MIC [9]
O=C(N/N=C/c1ccccc1O)c1ccc(Cl)cc1	1.09	12.5 µg/mL (≈ 45.5 µM)	34 µg/mL (≈ 124 µM)	95 µg/mL (≈ 346 µM)	1.255	18 µg/mL (≈ 65.5 µM)	1.74	55 µg/mL (≈ 200 µM)	1.53	34 µg/mL (≈ 124 µM)	1.301	20 µg/mL (≈ 72.8 µM)	50 µg/mL (≈ 182 µM)	1	10 µg/mL (≈ 36.4 µM)
O=C(N/N=C/c1ccccc1)c1ccccc1C(=O)c1ccccc1	0.81	6.5 µg/mL (≈ 19.8 µM)	152 µg/mL (≈ 463 µM)	105 µg/mL (≈ 320 µM)	1.477	30 µg/mL (≈ 91.4 µM)	2	100 µg/mL (≈ 305 µM)	1.69	50 µg/mL (≈ 152 µM)	1.924	84 µg/mL (≈ 256 µM)	49 µg/mL (≈ 149 µM)		
O=C(N/N=C/c1ccc(Cl)cc1)c1ccccc1C(=O)c1ccccc1	1.09	12.5 µg/mL (≈ 34.5 µM)	109 µg/mL (≈ 300 µM)	54 µg/mL (≈ 149 µM)	1.531	34 µg/mL (≈ 93.7 µM)	2.301	200 µg/mL (≈ 551 µM)	1.69	50 µg/mL (≈ 138 µM)	1.924	84 µg/mL (≈ 232 µM)	20 µg/mL (≈ 55.1 µM)	1.3	20 µg/mL (≈ 55.1 µM)
O=C(N/N=C/c1ccc([N+](=O)[O-])cc1)c1ccccc1C(=O)c1ccccc1	1.3	20 µg/mL (≈ 53.6 µM)	125 µg/mL (≈ 335 µM)	17 µg/mL (≈ 45.5 µM)	1.531	34 µg/mL (≈ 91.1 µM)	1.924	84 µg/mL (≈ 225 µM)	1.47	30 µg/mL (≈ 80.3 µM)	1.397	25 µg/mL (≈ 67 µM)	18 µg/mL (≈ 48.2 µM)	1.4	25 µg/mL (≈ 67 µM)
Cc1ccc(/C=N/NC(=O)c2ccccc2C(=O)c2ccccc2)cc1	1.4	25 µg/mL (≈ 73 µM)	84 µg/mL (≈ 245 µM)	12 µg/mL (≈ 35 µM)	1.531	34 µg/mL (≈ 99.3 µM)	1.698	50 µg/mL (≈ 146 µM)	2.3	200 µg/mL (≈ 584 µM)	2.225	168 µg/mL (≈ 491 µM)	5 µg/mL (≈ 14.6 µM)		
COc1cc(/C=N/NC(=O)c2ccccc2C(=O)c2ccccc2)ccc1O	1.69	50 µg/mL (≈ 134 µM)	79 µg/mL (≈ 211 µM)	10 µg/mL (≈ 26.7 µM)	1.531	34 µg/mL (≈ 90.8 µM)	1.301	20 µg/mL (≈ 53.4 µM)	2.3	200 µg/mL (≈ 534 µM)	1.698	50 µg/mL (≈ 134 µM)	70 µg/mL (≈ 187 µM)	1.4	25 µg/mL (≈ 66.8 µM)
O=C(N/N=C/c1ccc(O)cc1)c1ccccc1C(=O)c1ccccc1	1.4	25 µg/mL (≈ 72.6 µM)	91 µg/mL (≈ 264 µM)	20 µg/mL (≈ 58.1 µM)	1.531	34 µg/mL (≈ 98.7 µM)	2	100 µg/mL (≈ 290 µM)	1.92	84 µg/mL (≈ 244 µM)	1.903	80 µg/mL (≈ 232 µM)	100 µg/mL (≈ 290 µM)	1.92	84 µg/mL (≈ 244 µM)
O=C(N/N=C/c1ccccc1[N+](=O)[O-])c1ccccc1C(=O)c1ccccc1	1.4	25 µg/mL (≈ 67 µM)	101 µg/mL (≈ 271 µM)	75 µg/mL (≈ 201 µM)	1.255	18 µg/mL (≈ 48.2 µM)	1.397	25 µg/mL (≈ 67 µM)	1.47	30 µg/mL (≈ 80.3 µM)	1.301	20 µg/mL (≈ 53.6 µM)	42 µg/mL (≈ 112 µM)		
O=C(N/N=C/c1ccccc1O)c1ccccc1C(=O)c1ccccc1	1.09	12.5 µg/mL (≈ 36.3 µM)	132 µg/mL (≈ 383 µM)	35 µg/mL (≈ 102 µM)	1.301	20 µg/mL (≈ 58.1 µM)	2	100 µg/mL (≈ 290 µM)	1.53	34 µg/mL (≈ 98.7 µM)	1.531	34 µg/mL (≈ 98.7 µM)	15 µg/mL (≈ 43.6 µM)	1.53	34 µg/mL (≈ 98.7 µM)
COc1cc(/C=N/NC(=O)c2ccc(Cl)cc2)ccc1O	1.4	25 µg/mL (≈ 82 µM)	0.5 µg/mL (≈ 1.64 µM)	160 µg/mL (≈ 525 µM)	1.255	18 µg/mL (≈ 59.1 µM)	1.924	84 µg/mL (≈ 276 µM)	2	100 µg/mL (≈ 328 µM)	1.531	34 µg/mL (≈ 112 µM)	32 µg/mL (≈ 105 µM)	1.69	50 µg/mL (≈ 164 µM)
O=C(N/N=C/c1ccc([N+](=O)[O-])cc1)c1ccc(Cl)cc1	1.3	20 µg/mL (≈ 65.9 µM)	1.8 µg/mL (≈ 5.93 µM)	85 µg/mL (≈ 280 µM)	1.301	20 µg/mL (≈ 65.9 µM)	1.301	20 µg/mL (≈ 65.9 µM)		100 µg/mL (≈ 329 µM)	1.531	34 µg/mL (≈ 112 µM)	45 µg/mL (≈ 148 µM)		
Cc1ccc(/C=N/NC(=O)c2ccc(Cl)cc2)cc1	0.81	6.5 µg/mL (≈ 23.8 µM)	4.3 µg/mL (≈ 15.8 µM)	86 µg/mL (≈ 315 µM)	1.477	30 µg/mL (≈ 110 µM)	1.301	20 µg/mL (≈ 73.3 µM)	2.3	200 µg/mL (≈ 733 µM)	2.264	184 µg/mL (≈ 675 µM)	42 µg/mL (≈ 154 µM)		10 µg/mL (≈ 36.7 µM)
O=C(N/N=C/c1c(O)ccc2ccccc12)c1ccc(Cl)cc1	1.4	25 µg/mL (≈ 77 µM)	69 µg/mL (≈ 212 µM)	80 µg/mL (≈ 246 µM)	1.477	30 µg/mL (≈ 92.4 µM)	1.531	34 µg/mL (≈ 105 µM)	2	100 µg/mL (≈ 308 µM)	1.924	84 µg/mL (≈ 259 µM)	120 µg/mL (≈ 369 µM)	2	100 µg/mL (≈ 308 µM)
O=C(N/N=C/c1cccc([N+](=O)[O-])c1)c1ccc(Cl)cc1	1.4	25 µg/mL (≈ 82.3 µM)	22 µg/mL (≈ 72.4 µM)	124 µg/mL (≈ 408 µM)	1.301	20 µg/mL (≈ 65.9 µM)	1.531	34 µg/mL (≈ 112 µM)	1.69	50 µg/mL (≈ 165 µM)	1.301	20 µg/mL (≈ 65.9 µM)	30 µg/mL (≈ 98.8 µM)		10 µg/mL (≈ 32.9 µM)
CC1(C)S[C@@H]2[C@H](NC(=O)[C@H](N)c3ccc(O)cc3)C(=O)N2[C@H]1C(=O)O [AMOXICILLIN]		200 µg/mL (≈ 547 µM)				12.5 µg/mL (≈ 34.2 µM)				100 µg/mL (≈ 274 µM)		12.5 µg/mL (≈ 34.2 µM)			
C=CC1=C(C(=O)O)N2C(=O)[C@@H](NC(=O)/C(=N\OCC(=O)O)c3csc(N)n3)[C@H]2SC1 [CEFIXIME]		400 µg/mL (≈ 882 µM)				50 µg/mL (≈ 110 µM)				400 µg/mL (≈ 882 µM)		50 µg/mL (≈ 110 µM)			
O=C(O)Cc1ccccc1Nc1c(Cl)cccc1Cl [DICLOFENAC]				71 µg/mL (≈ 240 µM)											
OC(Cn1cncn1)(Cn1cncn1)c1ccc(F)cc1F [FLUCONAZOLE]								12.5 µg/mL (≈ 40.8 µM)							400 µg/mL (≈ 1310 µM)
